Experimental data reported in patent US20040242639A1, “Phospholipase C inhibitors for use in treating inflammatory disorders” (priority 2003, published 2004).

Target: T1, human PLC-β2 (Homo sapiens, UniProt Q00722)
T1 construct: made in house; host or cells: Sf9 cells (Spodoptera frugiperda), recombinant baculovirus
Test: PLC assay using FlashPlates (immobilized [3H]PIP2 hydrolysis)
Type: biochemical
Settings: for IC50: 96-well Phospholipid FlashPlates coated with [3H]PIP2, purified recombinant human PLC-β2 or cytosolic human PLC-β2; for inhibition at 10 µM: read-out: %
Excerpt: The hydrolysis of phosphatidylinositol-4,5-bisphosphate (PIP2) by a specific phospholipase C-β2 (PLC-β2) produces two intracellular messengers, diacylglycerol (DAG) and inositol 1,4,5-trisphosphate ([…]), which mediate the activation of protein kinase C and intracellular Ca^2+ release. A conventional organic solvent extraction method is widely used for PLC assays to isolate IP3 from the substrate […]. The conventional PLC-β2 assay, however is terminated by addition of acidified organic solvents and subsequent extraction and phase separation. […] Accordingly, a preferred method to test the compounds of the present invention, was developed utilizing a 96-well plate assay for PLC-β2 using immobilized radiolabeled substrate to quantitatively measure the reduction in the substrate level without a need for organic solvent extraction. The automated PLC-β2 assay described herein provides a convenient method for quantitative measurement of phospholipase C activities in a high throughput fashion.
Ninety-six well Phospholipid FlashPlates were coated with 0.2 mL of 50 mM Tris/HCl (pH 7.4), 0.01% Ac-BSA and 50,000 cpm of ^[3H]PIP2 (phosphatidylinositol-4,5-bisphosphate) at 4° C. for 72 h. The wells were aspirated and washed twice with PBS. The reactions were conducted directly in the wells in PLC reaction buffer containing 50 mM Tris/HCl (pH 7.2), 2.75 mM EDTA (pH 7.3), 80 mM KCl, 10 mM LiCl, 0.04% DOC and 2 mM CaCl2 in the absence or presence of the purified recombinant human PLC-β2 (prepared as described hereafter) or cytosolic human PLC-β2 from […]. Reduction of radioactivity was monitored by a Packard TopCount instrument (Packard Instrument Company, Conn., USA).
Suspension cultures of Sf9 cells were maintained in a spinner flask at 27° C. and stirred at 90 rpm. The cells were grown in Grace's media supplemented with 10% (v/v) fetal bovine serum, 3.3 g/l yeastolate, 3.3 g/l lactalbumin hydrosylate, glutamine (6.4 mM final), […] gentamicin, and 50 µg/ml kanamycin. Suspension of Sf9 cells (1.0×10^6 cells/ml) were infected with 5 pfu/cell of recombinant baculovirus encoding PLC-β2 and incubated at 27° C. for 72 h. The cells were collected by centrifugation (500×g, 7 min, 4° C.) and disrupted by hypotonic lysis buffer containing 20 mM Tris/HCl, pH 7.4, 5 mM MgCl2, 2 mM EGTA, 200 μM PMSF, 200 μM benzamidine and 1 μM pepstatin A. The lysate was sonicated on ice and the nuclei and unbroken cells removed by centrifugation (500×g, 5 min, 4° C.). The supernatant was recovered and clarified by centrifugation (34,000 rpm, 60 min, 4° C.). The supernatant was used as a crude cytosolic fraction (Paterson, A., Boyer, J. L., Watts, V. J., Morris, A. J., Price, E. M., Harden, T. K. (1995) Concentration of enzyme-dependent activation of PLC β1 and PLC β2 by Gα11 and βγ subunits. Cellular Signalling 7, 709-720).
Crude cytosol prepared from Sf9 cells expressing PLC-β2 was purified initially by chromatography on a 10 ml column of Q-Sepharose FF, equilibrated in buffer A (25 mM HEPES, pH 7.2,2 mM DTT, 2mM EDTA, 2 mM EGTA, 200 μM PMSF, 200 μM benzamidine, 1 μM pepstatin A containing 10 mM NaCl). […]

T1 sequence (Q00722 whole entry): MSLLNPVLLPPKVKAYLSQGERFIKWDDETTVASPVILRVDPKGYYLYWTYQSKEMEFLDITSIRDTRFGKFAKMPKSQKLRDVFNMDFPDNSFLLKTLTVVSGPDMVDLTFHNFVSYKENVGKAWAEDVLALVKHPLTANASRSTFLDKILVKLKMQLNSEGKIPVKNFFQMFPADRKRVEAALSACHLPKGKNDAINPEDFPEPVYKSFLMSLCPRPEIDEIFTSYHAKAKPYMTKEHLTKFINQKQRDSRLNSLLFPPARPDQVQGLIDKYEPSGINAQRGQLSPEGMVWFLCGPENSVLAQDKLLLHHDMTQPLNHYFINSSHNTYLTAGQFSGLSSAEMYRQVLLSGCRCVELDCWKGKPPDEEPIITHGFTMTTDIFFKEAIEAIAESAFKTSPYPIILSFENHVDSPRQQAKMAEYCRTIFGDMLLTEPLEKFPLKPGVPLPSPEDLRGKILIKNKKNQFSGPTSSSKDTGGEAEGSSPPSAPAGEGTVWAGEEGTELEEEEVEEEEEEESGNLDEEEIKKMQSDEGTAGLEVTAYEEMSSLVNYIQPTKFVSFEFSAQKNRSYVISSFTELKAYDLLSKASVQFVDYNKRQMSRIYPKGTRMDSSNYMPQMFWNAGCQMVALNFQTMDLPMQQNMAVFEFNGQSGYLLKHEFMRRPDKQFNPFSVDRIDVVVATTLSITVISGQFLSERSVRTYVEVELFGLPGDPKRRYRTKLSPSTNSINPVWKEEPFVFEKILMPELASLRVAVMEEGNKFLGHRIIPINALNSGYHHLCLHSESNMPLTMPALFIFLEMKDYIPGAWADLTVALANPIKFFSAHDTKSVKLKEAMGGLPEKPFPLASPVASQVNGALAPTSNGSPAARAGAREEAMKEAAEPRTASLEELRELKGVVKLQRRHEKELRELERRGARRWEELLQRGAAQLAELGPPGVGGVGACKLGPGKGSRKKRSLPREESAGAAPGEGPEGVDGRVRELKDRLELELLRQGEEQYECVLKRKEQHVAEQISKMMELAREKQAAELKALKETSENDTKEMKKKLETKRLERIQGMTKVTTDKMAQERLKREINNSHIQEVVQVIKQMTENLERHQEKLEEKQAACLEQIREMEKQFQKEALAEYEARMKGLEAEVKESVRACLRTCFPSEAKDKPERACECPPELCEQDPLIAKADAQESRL

Structure (SMILES) | IC50 | inhibition at 10 µM
NC(=O)c1ccc(N2CCC(Cc3ccccc3)CC2)c(NC(=O)Nc2ccccc2)c1 [Cpd 1, 3-[[(phenylamino)carbonyl]amino]-4-[4-(phenylmethyl)-1-piperidinyl]-benzamide] | 3.4 µM | 
NC(=O)c1ccc(N2CCC(c3ccccc3)CC2)c(NC(=O)Nc2ccccc2)c1 [Cpd 2, 3-[[(phenylamino)carbonyl]amino]-4-(4-phenyl-1-piperidinyl)-benzamide] | 7.1 µM | 
NC(=O)c1ccc(N2CCC(c3ccccc3)CC2)c(NC(=O)Nc2ccc3c(c2)OCO3)c1 [Cpd 3, 3-[[(1,3-benzodioxol-5-ylamino)carbonyl]amino]-4-(4-phenyl-1-piperidinyl)-benzamide] | 11 µM | 
NC(=O)c1ccc(N2CCC(C(c3ccccc3)c3ccccc3)CC2)c(NC(=O)Nc2ccccc2)c1 [Cpd 6, 4-[4-(diphenylmethyl)-1-piperidinyl]-3-[[(phenylamino)carbonyl]amino]-benzamide] |  | 60.7%
NC(=O)c1ccc(N2CCC(=C(c3ccccc3)c3ccccc3)CC2)c(NC(=O)Nc2ccccc2)c1 [Cpd 7, 4-[4-(diphenylmethylene)-1-piperidinyl]-3-[[(phenylamino)carbonyl]amino]-benzamide] |  | 49.8%
